Source: ChEMBL document CHEMBL3603752, “Discovery of N-(4-aryl-5-aryloxy-thiazol-2-yl)-amides as potent RORγt inverse agonists” (Bioorg Med Chem, 2015)

Key:
[1] = molecular target: T1, Nuclear receptor ROR-gamma (Homo sapiens, UniProt P51449); test: Inverse agonist activity at APC-labeled RORgammat-LBD (unknown origin) assessed as inhibition of N-(2-chloro-6-fluorobenzyl)-N-((2'-methoxy-[1,1'-biphenyl]-4-yl)-methyl)benzenesulfonamide-induced europium-labeled SRC1 recruitment after 1 hr by FRET analysis
T1 sequence (P51449 whole entry): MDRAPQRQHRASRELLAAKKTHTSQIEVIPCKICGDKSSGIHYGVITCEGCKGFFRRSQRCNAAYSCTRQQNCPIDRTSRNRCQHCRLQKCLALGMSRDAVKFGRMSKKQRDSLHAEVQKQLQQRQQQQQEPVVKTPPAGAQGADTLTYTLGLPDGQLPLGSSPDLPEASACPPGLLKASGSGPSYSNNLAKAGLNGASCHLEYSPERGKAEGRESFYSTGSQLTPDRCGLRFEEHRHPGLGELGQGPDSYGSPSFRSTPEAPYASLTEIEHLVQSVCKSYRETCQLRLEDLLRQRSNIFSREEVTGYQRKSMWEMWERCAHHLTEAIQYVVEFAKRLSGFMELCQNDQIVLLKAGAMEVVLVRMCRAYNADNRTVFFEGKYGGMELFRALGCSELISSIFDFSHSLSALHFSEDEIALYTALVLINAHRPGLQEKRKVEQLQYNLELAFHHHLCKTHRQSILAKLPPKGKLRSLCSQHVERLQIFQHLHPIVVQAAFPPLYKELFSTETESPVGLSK

[2] = molecular target: T1, Nuclear receptor ROR-gamma; test: Agonist activity at APC-labeled RORgammat-LBD (unknown origin) assessed as induction of europium-labeled SRC1 recruitment after 1 hr by dual FRET analysis
[3] = molecular target: T2, Nuclear receptor ROR-gamma (Mus musculus, UniProt P51450); test: Inverse agonist activity at RORgammat in mouse Th17 cells assessed as inhibition of IL-17 production after 3 days by ELISA; format: cell-based
T2 sequence (P51450 whole entry): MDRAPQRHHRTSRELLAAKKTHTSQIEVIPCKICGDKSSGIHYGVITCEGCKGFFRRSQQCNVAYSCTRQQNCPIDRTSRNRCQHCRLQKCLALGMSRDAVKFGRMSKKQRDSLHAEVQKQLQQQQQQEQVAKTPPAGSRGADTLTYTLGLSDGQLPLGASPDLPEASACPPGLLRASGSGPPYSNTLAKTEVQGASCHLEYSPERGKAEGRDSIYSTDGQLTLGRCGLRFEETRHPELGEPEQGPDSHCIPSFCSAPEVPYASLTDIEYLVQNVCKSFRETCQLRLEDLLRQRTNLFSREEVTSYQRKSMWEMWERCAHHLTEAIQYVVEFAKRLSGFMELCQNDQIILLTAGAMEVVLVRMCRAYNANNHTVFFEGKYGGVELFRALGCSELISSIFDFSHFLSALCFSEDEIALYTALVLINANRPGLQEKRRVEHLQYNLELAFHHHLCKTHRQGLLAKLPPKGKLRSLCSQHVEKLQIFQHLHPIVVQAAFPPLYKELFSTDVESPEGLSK

Liver = test: Intrinsic clearance in mouse liver microsomes at 0.5 microM by LC/MS/MS analysis; format: ADME

| SMILES | IC50 [1] [nM] | EC50 [2] [nM] | IC50 [3] [nM] | CLH (Liver) [mL/min/g] |
| --- | --- | --- | --- | --- |
| CCS(=O)(=O)c1ccc(CC(=O)Nc2nc(-c3ccc(Cl)cc3)c(Oc3ccccc3)s2)cc1 |  |  | 3980 | < 0.36 |
| CCS(=O)(=O)c1ccc(CC(=O)Nc2nc(-c3ccccc3)c(Oc3ccc(C(F)(F)F)cc3)s2)cc1 |  |  | 631 | < 0.36 |
| CCS(=O)(=O)c1ccc(CC(=O)Nc2nc(-c3cccc(Cl)c3)c(Oc3ccccc3C(F)(F)F)s2)cc1 |  |  | 2000 | < 0.36 |
| CCS(=O)(=O)c1ccc(CC(=O)Nc2nc(-c3ccccc3)c(Oc3ccccc3Cl)s2)cc1 |  |  | 1580 | 0.46 |
| CCS(=O)(=O)c1ccc(CC(=O)Nc2nc(-c3cccc(C#N)c3)c(Oc3ccc(Cl)cc3C(F)(F)F)s2)cc1 |  |  | 158 | < 0.36 |
| CCS(=O)(=O)c1ccc(CC(=O)Nc2nc(-c3cccc(Cl)c3)c(Oc3ccccc3)s2)cc1 |  |  | 1580 |  |
| CCS(=O)(=O)c1ccc(CC(=O)Nc2nc(-c3ccccc3)c(Oc3ccccc3OC)s2)cc1 |  |  | 251 | 2.37 |

Results, then the compound that gave them:

| IC50 [1] [nM] | EC50 [2] [nM] | IC50 [3] [nM] | CLH (Liver) [mL/min/g] | SMILES |
| --- | --- | --- | --- | --- |
| 158 | 3160 |  |  | CCS(=O)(=O)c1ccc(CC(=O)Nc2nc(-c3cc(Cl)ccc3Cl)c(-c3ccccc3)s2)cc1 |
|  |  | 398 | < 0.36 | CCS(=O)(=O)c1ccc(CC(=O)Nc2nc(-c3cccc(C#N)c3)c(Oc3ccc(C(F)(F)F)cc3Cl)s2)cc1 |
|  |  | 1000 | < 0.36 | CCS(=O)(=O)c1ccc(CC(=O)Nc2nc(-c3ccccc3)c(Oc3ccccc3C(F)(F)F)s2)cc1 |
|  |  | 251 | < 0.36 | CCS(=O)(=O)c1ccc(CC(=O)Nc2nc(-c3cccc(C#N)c3)c(Oc3ccccc3C(F)(F)F)s2)cc1 |
|  |  | > 10000 | 0.39 | CCS(=O)(=O)c1ccc(CC(=O)Nc2nc(-c3ccccc3)c(Oc3ccc(OC)cc3)s2)cc1 |
|  |  | 1580 | < 0.36 | CCS(=O)(=O)c1ccc(CC(=O)Nc2nc(-c3ccccc3)c(Oc3ccc(Cl)cc3)s2)cc1 |
